# Assay results reported in patent publication US20200024347A1, “OR10H1 ANTIGEN BINDING PROTEINS AND USES THEREOF” (iOmx Therapeutics AG, priority 2016, published 2020).
# Legend:
# Assay type in all cases: cell-based, human
# OR10H1 = assay: Stable lentiviral shRNA knock-down of OR10H1 in M579-A2
# M579-A2-luc cells [1] = assay: Luc-CTL cytotoxicity assay, TIL412-mediated killing of M579-A2-luc
# Text: It was surprising to find that all siRNAs show an impact on TIL412-mediated killing of M579-A2-luc at 5:1 Effector to Target cell (E:T) ratio (FIG. 1B). Transfection of M579-A2-luc cells with OR10H1 siRNA 1 increased HLA-matched patient-derived tumor-infiltrating lymphocyte (TIL, clone 412)-mediated killing to 70% (30% remaining melanoma cells compared to a scrambled negative control siRNA; p=<0.0001). This increase in TIL-mediated lysis is stronger than for PD-L1 positive control knock-down (39% remaining cells).
# (§1) The effects of siRNA knock-down on TIL-mediated killing and lysis in a chromium release assay were investigated as described in Khandelwal et al, 2015 (EMBO Mol Med 7:450-63). Tumor-infiltrating lymphocytes 412 and 209 microcultures were expanded from an inguinal lymph node of a melanoma patient as described in Dudley et al, 2010 (Clin Cancer Res 16:6122-31). M615, TIL615 and other patient-derived TIL cells were obtained analogously as described in Dudley et al, 2010. M579-A2-luc cells and M615-luc cells were produced from M579-A2 and M615, respectively (Machlenkin et al, 2008; Cancer Res 68:2006-13).
# OR10H1 mRNA = assay: RT-PCR of OR10H1 mRNA after siRNA transfection; conditions: M579-A2 cells, 72 h after transfection
# Protocol: SMART pool siRNA against OR10H1 (GE Dharmacon) were tested (by RT-PCR) for their activity in downregulating OR10H1 mRNA in M579 (melanoma) cells. […] Details of the respective siRNAs are set out in Table E1.
# [2] = system: SW480 colorectal cancer cells; assay: Chromium release assay, lysis of SW480 by HLA-matched TILs; conditions: SW480, 50:1 E:T ratio, 4 h co-culture
# Protocol: (§2) Furthermore, it was tested whether OR10H1 knock-down also has an effect in other cancers. […] SW480 (ATCC) and PANC-1 cells were analyzed for their expression of OR10H1 (see above) and the knock-down efficacy of the siRNAs were validated. The CRC cell line SW480 and the PANC-1 cell line were each co-cultured with corresponding HLA-matched TILs for chromium release (4 h co-culture). OR10H1 siRNA 1 almost tripled the lysis of SW480 by TILs in all effector to target ratios compared to the negative control siRNA (33% to 12.8% specific lysis at 50:1 E:T ratio; FIG. 1E). Indeed, knock-down of OR10H1 was almost as effective as knock-down of PD-L1 positive control on TIL-mediated lysis (FIG. 1E). Such effect was also surprising to see in pancreatic cancer cells: knock-down of OR10H1 (siRNA 1) doubled the lysis of PANC-1 by TILs in all effector to target ratios compared to the negative control siRNA (53% to 26% specific lysis at 50:1 E:T ratio; FIG. 1F).
# (§3) The effects of siRNA knock-down on TIL-mediated killing and lysis in a chromium release assay were investigated as described in Khandelwal et al, 2015 (EMBO Mol Med 7:450-63). Tumor-infiltrating lymphocytes 412 and 209 microcultures were expanded from an inguinal lymph node of a melanoma patient as described in Dudley et al, 2010 (Clin Cancer Res 16:6122-31). […]
# [3] = system: PANC-1 pancreatic adenocarcinoma cells; assay: Chromium release assay, lysis of PANC-1 by HLA-matched TILs; conditions: PANC-1, 50:1 E:T ratio, 4 h co-culture
# Protocol: as §2, §3
# TIL412 = assay: Luminex cytokine secretion of TIL412 after co-culture with M579-A2; conditions: 20 h co-culture
# M579-A2 cells = assay: Chromium release assay, lysis of M579-A2 by TIL209; conditions: TIL209, 12.5 E:T ratio, 4 h co-culture
# Protocol: TIL-mediated lysis of M579-A2 was validated in chromium release assay (4 h co-culture). […] Indeed, this effect of OR10H1 knock-down was stronger than the PD-L1 positive control knock-down (41% specific lysis at 12.5 E:T ratio; FIG. 1C).
# as §1
# M579-A2-luc cells [4] = system: M579-A2-luc cells
substance,measurement,setting,value
"OR10H1 shRNA 4: shRNA against OR10H1, TCTGCTGAAGGTCGGAACAAG, Sigma Aldrich TRCN0000357708, SEQ ID No. 31 (the letters are possibly those of the target site; listed as Homo sapiens)",impact on OR10H1 expression and functionality,OR10H1,strongest impact
"OR10H1 siRNA 3: siRNA against OR10H1, GCAGAGAGCCAAUCACUCC, GE Dharmacon D-020479-03, SEQ ID No. 26 (listed as RNA, chemistry not given here; listed as Homo sapiens)",effect on M579-A2-luc viability,M579-A2-luc cells [1]; without the presence of TILs,shows an effect
same,knock-down of OR10H1 mRNA (RT-PCR),OR10H1 mRNA,strong reduction
"OR10H1 siRNA 1: siRNA against OR10H1, GGAGACACCUUGAUGGGCA, GE Dharmacon D-020479-01, SEQ ID No. 24 (listed as RNA, chemistry not given here; listed as Homo sapiens)",specific lysis,[2],33%
same,TIL-mediated killing,"M579-A2-luc cells [1]; TIL412, 5:1 E:T ratio",70%
same,remaining melanoma cells compared to scrambled negative control siRNA,"M579-A2-luc cells [1]; TIL412, 5:1 E:T ratio",30%
same,specific lysis,[3],53%
same,decrease of IL-6 secretion,TIL412,37%
same,decrease of MCP-1 secretion,TIL412,39%
same,increase of IFN-gamma secretion compared to negative control,TIL412,8%
same,increase of IL-2 secretion,TIL412,58%
same,IFN-gamma secretion,TIL412; supernatant,3037 pg/mL
same,IL-2 secretion,TIL412; supernatant,1701 pg/mL
same,IL-4 secretion,TIL412; supernatant,11.8 pg/mL
same,IL-6 secretion,TIL412; supernatant,31 pg/mL
same,MCP-1 secretion,TIL412; supernatant,4035 pg/mL
same,decrease of IL-4 secretion,TIL412; trend,20%
same,knock-down of OR10H1 mRNA (RT-PCR),OR10H1 mRNA,complete absence
same,specific lysis,M579-A2 cells,57%
"OR10H1 siRNA 2: siRNA against OR10H1, AGUAAACUCUACCCAGAAA, GE Dharmacon D-020479-02, SEQ ID No. 25 (listed as RNA, chemistry not given here; listed as Homo sapiens)",knock-down of OR10H1 mRNA (RT-PCR),OR10H1 mRNA,weaker but clear reduction
pertussis toxin,effect on TIL-mediated tumor lysis in OR10H1 siRNA transfected (OR10H1-negative) M579-A2-luc,M579-A2-luc cells [4],not observed
same,effect on TIL-mediated tumor lysis in control siRNA transfected M579-A2-luc,M579-A2-luc cells [4],slightly decreased
"OR10H1 siRNA 4: siRNA against OR10H1, GGUCGUGCACUAUGGCUUU, GE Dharmacon D-020479-04, SEQ ID No. 27 (listed as RNA, chemistry not given here; listed as Homo sapiens)",knock-down of OR10H1 mRNA (RT-PCR),OR10H1 mRNA,weaker but clear reduction
cholera toxin,TIL-mediated lysis,M579-A2-luc cells [4],around 30%
same,effect on OR10H1 knockdown-mediated increase in TIL-mediated tumor lysis,M579-A2-luc cells [4],abrogated
same,effect on TIL-mediated tumor lysis in OR10H1 siRNA transfected (OR10H1-negative) M579-A2-luc,M579-A2-luc cells [4],dramatically decreases
same,effect on TIL-mediated tumor lysis in control siRNA transfected M579-A2-luc,M579-A2-luc cells [4],slight decrease
